Assay results published in patent US20120077802A1 (SUNOVION PHARMACEUTICALS INC., priority 2009, published 2012).

Molecular target: T1, human histamine H3 receptor (Homo sapiens, UniProt Q9Y5N1)
T1 construct: host or cells: cells expressing the human H3 receptor
Assay: H3 GTPγS assay (SPA method), histamine H3 in vitro assay
Assay type: biochemical
Conditions: GTPγ[35S] SPA, membranes of cells expressing human H3 receptor; in one embodiment HCl salts tested; read-out: Potency (functional potency as indicated by IC50)
Protocol: H3 GTPγS assay (SPA method) was performed at EuroScreen (Belgium, ES-392-C) using conventional methods. Briefly, cells expressing the human histamine H3 receptor were homogenized in 15 mM Tris-HCl pH 7.5, 2 mM MgCl2, 0.3 mM EDTA, and 1 mM EGTA. Membranes were washed twice in the above tris buffer, collected by centrifugation (40,000×g, 25 min), and re-suspended in 75 mM Tris-HCl pH 7.5, 12.5 mM MgCl2, 0.3 mM EDTA, 1 mM EGTA, and 250 mM sucrose. Membranes were frozen in liquid nitrogen until use. On the day of the assay, membranes were thawed and diluted in assay buffer (20 mM HEPES pH 7.4, 100 mM NaCl, 10 μg/ml saponin, 1 mM MgCl2) to give 500 μg/ml and mixed (v/v) with GDP in assay buffer for a final GDP concentration of 10 μM and incubated on ice for at least 15 min. PVT-WGA beads (Amersham, RPNQ001) were diluted in assay buffer at 50 mg/mL and mixed with GTPγ[^35S] (Amersham, SJ1308) diluted in assay buffer to give ˜25,000 dpm/10 μL, and mixed vol/vol just before the start of the reaction. The reaction was started by adding 50 μL of test compound, 20 μL of the membranes:GDP mix, 10 μL of buffer, and 20 μL of the GTPγ[^35S]:beads mix in a 96 well plate Optiplate™ (PerkinElmer, 6005299) covered with topseal (TopCount™, PerkinElmer), mixed with an orbital shaker for 2 min, incubated for 1 hour at room temperature, centrifuged for 10 min at 2000 rpm, incubated for 1 h at room temperature, and counted for 1 min in a TopCount™ reader (PerkinElmer). Dose response curves and IC50 values (concentration to inhibit the reaction by 50%) were calculated by nonlinear regression using XLfit software (IDBS).
For antagonists testing, 10 μL of a reference agonist (R-γ-Me-Histamine) instead of 10 μL buffer was added at a concentration corresponding to the EC80 (30 nM). Control ligands were R-γ-Me-Histamine (Tocris, 0569), Imetit (Sigma, I-135), Thioperamide (Tocris, 0644), and Clobenpropit (Tocris, 0754) diluted in assay buffer.
The compounds provided herein were tested in the histamine H3 in vitro assay. In one embodiment, the respective HCl salts of the compounds provided herein were prepared using standard chemical procedures and tested in the histamine H3 in vitro assay.

T1 sequence (Q9Y5N1 whole entry): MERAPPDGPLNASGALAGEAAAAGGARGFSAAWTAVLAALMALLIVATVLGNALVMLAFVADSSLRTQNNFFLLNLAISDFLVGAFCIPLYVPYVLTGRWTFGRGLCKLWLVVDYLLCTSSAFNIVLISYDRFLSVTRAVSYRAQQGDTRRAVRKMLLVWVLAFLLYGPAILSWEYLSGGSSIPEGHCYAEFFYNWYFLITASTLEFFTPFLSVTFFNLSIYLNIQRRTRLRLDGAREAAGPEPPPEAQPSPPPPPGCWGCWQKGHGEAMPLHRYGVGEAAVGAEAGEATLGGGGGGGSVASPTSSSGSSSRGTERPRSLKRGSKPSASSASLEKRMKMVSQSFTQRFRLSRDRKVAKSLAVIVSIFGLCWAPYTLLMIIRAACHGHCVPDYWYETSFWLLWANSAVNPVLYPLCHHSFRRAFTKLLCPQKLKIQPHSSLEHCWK

c1cc2c(cc1N1CCCCC1)CC1(CCCN(C3CCC3)CC1)O2 (stereo not shown) [Compound 51, 1-Cyclobutyl-5′-(piperidin-1-yl)-3′H-spiro[azepane-4,2′-benzofuran]] and c1ccc2c(c1)ncn2-c1ccc2c(c1)CC1(CCN(C3CCC3)CC1)O2 [Compound 32, 5-(1H-Benzo[d]imidazol-1-yl)-1′-cyclobutyl-3H-spiro[benzofuran-2,4′-piperidine]] cannot be ordered by IC50: at most 100 nM for the first, at most 10 nM for the second.

CC(C1CCC1)N1CCC2(CC1)Cc1cc(-c3ccc4[nH]ccc4c3)ccc1O2 (stereo not shown) [Compound 13, 1′-(1-Cyclobutylethyl)-5-(1H-indol-5-yl)-3H-spiro[benzofuran-2,4′-piperidine]] and Cn1ncc2ccc(-c3ccc4c(c3)CC3(CCN(C5CCC5)CC3)O4)cc21 [Compound 65, 1′-Cyclobutyl-5-(1-methyl-1H-indazol-6-yl)-3H-spiro[benzofuran-2,4′-piperidine]] cannot be ordered by IC50: at most 100 nM for the first, at most 10 nM for the second.

c1cc2cc(-c3ccc4c(c3)CC3(CCN(C5CCC5)CC3)O4)cnc2[nH]1 [Compound 55, 1′-Cyclobutyl-5-(1H-pyrrolo[2,3-b]pyridin-5-yl)-3H-spiro[benzofuran-2,4′-piperidine]] and c1ccc2c(c1)CCN(Cc1ccc3c(c1)CC1(CCN4CCCCC4C1)O3)C2 (stereo not shown) [Compound 81, 5-((3,4-Dihydroisoquinolin-2(1H)-yl)methyl)-1′,3′,4′,6′,7′,8′,9′,9a′-octahydro-3H-spiro[benzofuran-2,2′-quinolizine]] cannot be ordered by IC50: at most 100 nM for the first, at most 10 nM for the second.

“5-((3,4-Dihydroisoquinolin-2(1H)-yl)methyl)-2′,3′,4′,6′,7′,9′,10′,10a′-octahydro-1′H,3H-spiro[benzofuran-2,8′-pyrido[1,2-a]azepine] and 5-((3,4-dihydroisoquinolin-2(1H)-yl)methyl)-2′,3′,4′,6′,7′,8′,10′,10a′-octahydro-1′H,3H-spiro[benzofuran-2,9′-pyrido[1,2-a]azepine] [88/88a]” and N#Cc1ccc(-c2ccc3c(c2)CC2(CCCN(C4CCC4)CC2)O3)cc1 (stereo not shown) [Compound 48, 4-(1-Cyclobutyl-3′H-spiro[azepane-4,2′-benzofuran]-5′-yl)benzonitrile] cannot be ordered by IC50: at most 100 nM for the first, at most 10 nM for the second.

c1nc2ccc(-c3ccc4c(c3)CC3(CCN(C5CCC5)CC3)O4)cn2n1 [Compound 62, 5-([1,2,4]Triazolo[1,5-a]pyridin-6-yl)-1′-cyclobutyl-3H-spiro[benzofuran-2,4′-piperidine]] and c1ccc2c(c1)CC1(CCN(C3CCC3)CC1)O2 [Compound 1, 1′-Cyclobutyl-3H-spiro[benzofuran-2,4′-piperidine]] cannot be ordered by IC50: at most 10 nM for the first, at most 100 nM for the second.

CN1CCC(N2CCC3(CC2)Cc2cc(Br)ccc2O3)CC1 [Compound 24, 5-Bromo-1′-(1-methylpiperidin-4-yl)-3H-spiro[benzofuran-2,4′-piperidine]] and “4-(1′,2′,3′,5′,6′,7′,9′,9a′-Octahydro-3H-spiro[benzofuran-2,8′-pyrrolo[1,2-a]azepin]-5-yl)benzonitrile and 4-(1′,2′,3′,5′,6′,8′,9′,9a′-octahydro-3H-spiro[benzofuran-2,7′-pyrrolo[1,2-a]azepin]-5-yl)benzonitrile [95/95a]” cannot be ordered by IC50: at most 1000 nM for the first, at most 100 nM for the second.

c1cc2ncc(-c3ccc4c(c3)CC3(CCN(C5CCC5)CC3)O4)cc2o1 [Compound 60, 1′-Cyclobutyl-5-(furo[3,2-b]pyridin-6-yl)-3H-spiro[benzofuran-2,4′-piperidine]] and CN(C)Cc1ccc2c(c1)CC1(CCN(C3CCC3)CC1)O2 [Compound 39, 1-(1′-Cyclobutyl-3H-spiro[benzofuran-2,4′-piperidine]-5-yl)-N,N-dimethylmethanamine] cannot be ordered by IC50: at most 10 nM for the first, at most 10 nM for the second.

COc1ccnc(-c2ccc3c(c2)CC2(CCN(C4CCC4)CC2)O3)n1 [Compound 28, 1′-Cyclobutyl-5-(4-methoxypyrimidin-2-yl)-3H-spiro[benzofuran-2,4′-piperidine]] and “5-((3,4-Dihydroisoquinolin-2(1H)-yl)methyl)-1′,2′,3′,5′,6′,7′,9′,9a′-octahydro-3H-spiro[benzofuran-2,8′-pyrrolo[1,2-a]azepine] and 5-((3,4-dihydroisoquinolin-2(1H)-yl)methyl)-1′,2′,3′,5′,6′,8′,9′,9a′-octahydro-3H-spiro[benzofuran-2,7′-pyrrolo[1,2-a]azepine] [97/97a]” cannot be ordered by IC50: at most 100 nM for the first, at most 10 nM for the second.

c1cc2c(cc1CN1CCOCC1)CC1(CCN3CCCC3C1)O2 (stereo not shown) [Compound 92, 5-(Morpholinomethyl)-2′,3′,5′,6′,8′,8a′-hexahydro-1′H,3H-spiro[benzofuran-2,7′-indolizine]] and c1cc2c(cc1-c1cnc3[nH]ncc3c1)CC1(CCN(C3CCC3)CC1)O2 [Compound 64, 1′-Cyclobutyl-5-(1H-pyrazolo[3,4-b]pyridin-5-yl)-3H-spiro[benzofuran-2,4′-piperidine]] cannot be ordered by IC50: at most 10 nM for the first, at most 10 nM for the second.

N#Cc1ccc(NCc2ccc3c(c2)OC2(CCN(C4CCC4)CC2)C3)cc1 [Compound 46, 4-((1′-Cyclobutyl-3H-spiro[benzofuran-2,4′-piperidine]-6-yl)methylamino)benzonitrile] and Brc1ccc2c(c1)CC1(CCN3CCCC3C1)O2 (stereo not shown) [Compound 89, 5-Bromo-2′,3′,5′,6′,8′,8a′-hexahydro-1′H,3H-spiro[benzofuran-2,7′-indolizine]] cannot be ordered by IC50: at most 100 nM for the first, at most 100 nM for the second.

Cn1cnc2cc(-c3ccc4c(c3)CC3(CCN(C5CCC5)CC3)O4)cnc21 [Compound 61, 1′-Cyclobutyl-5-(3-methyl-3H-imidazo[4,5-b]pyridin-6-yl)-3H-spiro[benzofuran-2,4′-piperidine]] and c1cc2nc(-c3ccc4c(c3)CC3(CCN(C5CCC5)CC3)O4)ccc2[nH]1 [Compound 56, 1′-Cyclobutyl-5-(1H-pyrrolo[3,2-b]pyridin-5-yl)-3H-spiro[benzofuran-2,4′-piperidine]] cannot be ordered by IC50: at most 10 nM for the first, at most 10 nM for the second.

c1cc2c(cc1CN1CCOCC1)CC1(CCN3CCCCC3C1)O2 (stereo not shown) [Compound 78, 5-(Morpholinomethyl)-1′,3′,4′,6′,7′,8′,9′,9a′-octahydro-3H-spiro[benzofuran-2,2′-quinolizine]] and CC(C)N1CCC2(CC1)Cc1cc(-c3ccc(C#N)cc3)ccc1O2 [Compound 22, 4-(1′-Isopropyl-3H-spiro[benzofuran-2,4′-piperidine]-5-yl)benzonitrile] cannot be ordered by IC50: at most 10 nM for the first, at most 10 nM for the second.

c1cn2cc(-c3ccc4c(c3)OC3(CCCN(C5CCC5)CC3)C4)ccc2n1 (stereo not shown) [Compound 69, 1-Cyclobutyl-6′-(imidazo[1,2-a]pyridin-6-yl)-3′H-spiro[azepane-4,2′-benzofuran]] and CN1CCN(c2ccc3c(c2)OC2(CCN(C4CCC4)CC2)C3)CC1 [Compound 38, 1′-Cyclobutyl-6-(4-methylpiperazin-1-yl)-3H-spiro[benzofuran-2,4′-piperidine]] cannot be ordered by IC50: at most 100 nM for the first, at most 100 nM for the second.

c1cc2ncc(-c3ccc4c(c3)CC3(CCN(C5CCC5)CC3)O4)cc2[nH]1 [Compound 59, 1′-Cyclobutyl-5-(1H-pyrrolo[3,2-b]pyridin-6-yl)-3H-spiro[benzofuran-2,4′-piperidine]] and c1ccc2c(c1)CCN(Cc1ccc3c(c1)CC1(CCN4CCCCC4C1)O3)C2 (stereo not shown) [Compound 80, 5-((3,4-Dihydroisoquinolin-2(1H)-yl)methyl)-1′,3′,4′,6′,7′,8′,9′,9a′-octahydro-3H-spiro[benzofuran-2,2′-quinolizine]] cannot be ordered by IC50: at most 10 nM for the first, at most 10 nM for the second.
